Laboratory results as given in patent US11857601B2, “Pharmaceutical composition for cancer treatment comprising fusion protein including IL-2 protein and CD80 protein and anticancer drug” (GI INNOVATION, INC., priority 2020, dated 2024).
Marks after values point to notes of the source that are not given here.

Key:
CT26 cells = test: mGI-101 and Axitinib in CT26 allotransplanted tumor model; conditions: mGI-101 3 mg/kg IP, Axitinib 30 mg/kg PO;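 note: subcutaneous CT26 syngeneic tumors in male BALB/c mice, dosing started once tumors were near 50 mm^3, drugs given orally or intraperitoneally for up to 3 weeks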
Protocol: Mouse-derived colorectal cancer cells, CT26 (Mus musculus, Colon adenocarcinoma), and mouse-derived lung cancer cells, LL/2 (Mus musculus, Lung adenocarcinoma), were purchased from ATCC (USA) and used for the test. The cells to be used for the test were thawed, mixed with RPMI1640 (A1049101, Thermofisher scientific) medium containing 10% FBS (fetal bovine serum, Gibco, 10082-147), and then placed in a cell culture flask, and cultured in a 37° C., 5% CO2 incubator. The cells were washed with PBS, and then the cells were isolated using Trypsin-EDTA (15090, Gibco), and centrifugation (125×g, 5 minutes) was performed to discard the supernatant, and then the cells were suspended in a new medium to obtain the cell suspension. The viability of the cells was identified, and then a cell line was prepared by diluting in a medium to a concentration of 5.0×10^6 cells/mL.
6-week-old male BALB/cAnHsd mice or C57BL/6NHsd mice were purchased and used for the test. After the end of the acclimation period of 7 days, the cells were transplanted into healthy animals. The cell suspension (5×10^6 cells/mL) was dispensed, and filled into a disposable syringe, and transplantation of the suspension was performed by subcutaneous administration at 0.1 mL/head in the right dorsal region of the animals. General symptoms were observed once a day during the engraftment and growth period after cell line transplantation.
After the inoculation of the cell line was performed, when the tumor size at the site to which the cell line was transplanted reached about 50 mm^3, the tumor size of each group was distributed as uniformly as possible according to the ranked tumor size.
The test substance was administered orally or intraperitoneally, and administered for 3 weeks depending on the composition of the test group. In the case of oral administration, the animals were fixed with the cervical spine skin fixation method, and administered directly into the stomach using a sonde for oral administration. In the case of intraperitoneal administration, the animals were fixed with the cervical spine skin fixation method, and administered intraperitoneally using a syringe equipped with a 26 gauge needle. The administration rate was not to exceed 200 μl/min.
Syngeneic model was prepared by subcutaneously transplanting the CT26 cell line into Balb/c mice, and then the test substance was administered to evaluate the anticancer effect.

[1] = molecular target: T1, CTLA-4 expressed on effector T cells (Homo sapiens, UniProt P16410); test: CTLA-4 blockade bioassay; assay type: cell-based; conditions: CTLA-4 effector cells + aAPC/Raji cells, 16 hours
T1 construct: host or cells: CTLA-4 effector cells of the kit, co-cultured with aAPC/Raji cells
T1 sequence (P16410 36-223): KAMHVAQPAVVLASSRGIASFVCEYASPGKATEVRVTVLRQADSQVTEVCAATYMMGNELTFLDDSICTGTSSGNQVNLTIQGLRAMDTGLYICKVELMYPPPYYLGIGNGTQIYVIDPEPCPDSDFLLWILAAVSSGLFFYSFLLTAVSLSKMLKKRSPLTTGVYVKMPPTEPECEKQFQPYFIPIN
Protocol: An experiment was performed using a CTLA-4 blockade bioassay kit (Promega cat No. JA4005). The experiment is briefly described as follows. CTLA-4 effector cells kept in liquid nitrogen were thawed in a 37° C. constant temperature water bath for 3 minutes, and 0.8 ml of CTLA-4 effector cells were mixed well with 3.2 ml of pre-warmed assay buffer (90% RPMI+10% fetal bovine serum). Then, the mixture was added to a 96-well white cell culture plate (SPL, cat No. 30196) at 25 μl per well. Then, 25 μl of GI101 at various concentrations was added thereto. For a negative control, 25 μl of assay buffer was added thereto. Then, the 96-well white cell culture plate was covered and placed at room temperature until aAPC/Raji cells were prepared.
aAPC/Raji cells kept in liquid nitrogen were thawed in a 37° C. constant temperature water bath for 3 minutes, and 0.8 ml of aAPC/Raji cells were mixed well with 3.2 ml of pre-warmed assay buffer. Then, 25 μl of the mixture was added to the plate at per well, and reaction was allowed to proceed in a 5% CO2 incubator at 37° C. for 16 hours. […] Reaction was allowed to proceed at room temperature for 10 minutes, and then luminescence was measured with Cytation 3 (BioTek instruments, Winooski, VT, USA). […]

[2] = tested on: immune cells in cancer tissues; test: Immune cell analysis in CT-26 cancer tissue (FACS); assay type: in vivo, BALB/c mice
Excerpt: The mice of each group in Experimental Example 16.1 were sacrificed when the tumor volume reached an average of 200 mm^3, and cancer tissues were collected.

MDA-MB-231 cells = test: GI101 and Keytruda in humanized mice xenotransplanted with MDA-MB-231; assay type: in vivo, human
Protocol: Fetal bovine serum (FBS, 16000-044, Thermofisher scientific, USA), penicillin-streptomycin; 10,000 units/ml penicillin and 10,000 μg/ml streptomycin (15140122, Thermofisher scientific, USA); and RPMI1640 (A1049101, Thermofisher scientific, USA) per 100 ml were mixed and used.
The cells were suspended using Trypsin-EDTA (Cat. 25200-072, Thermofisher scientific, USA). The suspended cells were collected by centrifugation (125×g, 5 minutes) using a centrifuge, transferred to a new medium and a new flask, and passage cultured. The cultured cells were put to a centrifugation tube on the day of cell line transplantation and then collected. […] 8-week-old female NSGb2m (NOD.Cg-B2m^tm1UncPrkdc^scidIl2rg^tm1Wjl/SzJ) mice were purchased from Joongang Bio (Korea) and used for the test. The body weight was measured the next day after the end of the quarantine and acclimation period, and then the human-derived PBMC cell suspension (5×10^6 cells/0.2 ml) prepared for healthy animals was filled into a disposable syringe and administered to the caudal vein of the animals. General symptoms were observed once a day after cell transplantation.
A certain period of time after the cell transplantation, the tumor volume was measured for animals with no abnormalities in the health condition of the animals, and 32 subjects were selected so that the average of each group reached 40 to 80 mm^3. The selected animals were grouped into a total of 4 groups as evenly as possible based on tumor volume and body weight, each group including 8 animals.
General symptoms such as appearance, behavior, and excrement were observed once a day during the observation period, and deceased animals were identified. Body weight was measured on the day of cell line transplantation, twice a week, and on the day of animal sacrifice. The major axis (maximum length, L) and minor axis (perpendicular width, W) of the tumor were measured using a caliper (Digital caliper, mitutoyo, Japan) three times a week during the observation period, and the tumor volume (TV) was calculated by substituting them into the following equations.
The tumor volume before administration of each subject was set as the value measured at the time of grouping.

[3] = day 42 vs day 21 after tumor transplantation, 8 animals per group

mGI101: fusion protein: mouse CD80, Ig hinge, Fc domain, linker, IL-2 variant (2M) (R38A, F42A); SEQ ID NO: 15
Tumor size (CT26 cells; Day 0, mean ± SD): 63.53 ± 11.56 mm^3
Tumor growth inhibition (CT26 cells; Day 5, mean ± SD): 58.32 ± 24.95 %
Tumor size (CT26 cells; Day 5, mean ± SD): 186.53 ± 76.61 mm^3
Tumor growth inhibition (CT26 cells; Day 7, mean ± SD): 62.12 ± 38.89 %
Tumor size (CT26 cells; Day 7, mean ± SD): 249.93 ± 149.08 mm^3
Tumor growth inhibition (CT26 cells; Day 9, mean ± SD): 62.87 ± 34.95 %
Tumor size (CT26 cells; Day 9, mean ± SD): 290.71 ± 165.17 mm^3
Tumor growth inhibition (CT26 cells; Day 12, mean ± SD): 66.48 ± 29.50 %
Tumor size (CT26 cells; Day 12, mean ± SD): 352.46 ± 195.64 mm^3
Tumor growth inhibition (CT26 cells; Day 14, mean ± SD): 65.87 ± 29.12 %
Tumor size (CT26 cells; Day 14, mean ± SD): 520.04 ± 307.47** mm^3
Tumor growth inhibition (CT26 cells; Day 16, mean ± SD): 52.36 ± 41.33 %
Tumor size (CT26 cells; Day 16, mean ± SD): 962.28 ± 634.90** mm^3
Tumor growth inhibition (CT26 cells; Day 19, mean ± SD): 41.48 ± 52.17 %
Tumor size (CT26 cells; Day 19, mean ± SD): 1395.48 ± 982.61** mm^3
Tumor growth inhibition (CT26 cells; Day 21, mean ± SD): 44.57 ± 46.55 %
Tumor size (CT26 cells; Day 21, mean ± SD): 1987.45 ± 1320.62**** mm^3

GI101: fusion protein: human CD80 fragment, Ig hinge, Fc domain, linker, IL-2 variant (2M) (R38A, F42A); SEQ ID NO: 9
function of T cells (luminescence) [1]: activats the function of T cells rather than inhibiting the same
CD8+ T cells in cancer tissue ([2]; 0.1 mg/kg, compared with anti-PD-1 antibody alone 5 mg/kg): significant increase
M1 macrophages ([2]; 0.1 mg/kg, vs negative control and anti-PD-1 antibody alone): increase
level of CD86 expression in macrophages and dendritic cells ([2]; all GI101 groups): increased level
level of expression of IFN-γ in T cells ([2]; all GI101 groups, vs negative control): significantly increased level
tumor growth (MDA-MB-231 cells; GI101 6 mg/kg, Keytruda 5 mg/kg, 4 administrations, compared with the control (hIgG4)): tumor growth inhibition
number of mice with tumor growth inhibition rate of 30% or more (MDA-MB-231 cells; [3]): 5 mice
number of mice with tumor growth inhibition rate of 50% or more (MDA-MB-231 cells; [3]): 5 mice
number of mice with tumor growth inhibition rate of 80% or more (MDA-MB-231 cells; [3]): 2 mice
